Measurements published in patent US20230355626A1, “INHIBITORS OF HUMAN IMMUNODEFICIENCY VIRUS REPLICATION” (VIIV HEALTHCARE UK (NO.5) LIMITED, priority 2020, published 2023).

What was measured:
recombinant NL4-3 virus = assay: HIV cell culture assay (antiviral activity, luciferase readout in infected MT-2 cells); assay type: cell-based; conditions: Human immunodeficiency virus 1, NL43, MT2
Outline: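 MT-2 cells infected for 4-5 days with 293T-derived NL4-3 reporter virus (nef partly replaced by Renilla luciferase) in serial compound dilutions. Live-cell luciferase read-out. EC50 from median effect equation fit.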

[1] = Compound cytotoxicity, XTT-based colorimetric assay; assay type: cell-based; conditions: human; uninfected MT2 cells, day 4, XTT assay
Outline: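 Follows the antiviral assay procedure, but with uninfected MT2 cells. On day 4, cell viability is measured by XTT-based colorimetry, giving CC50 values.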

Compound	EC50 (recombinant NL4-3 virus) [nM]	CC50 at 4 day [1] [nM]
Cn1nc(NS(C)(=O)=O)c2c(Cl)ccc(-n3c([C@H](Cc4cc(F)cc(F)c4)NC(=O)Cn4nc(C(F)F)c5c4C(F)(F)[C@@H]4C[C@H]54)nc4nc(OCC(F)(F)C(F)F)ccc4c3=O)c21 (atropisomer, axis not shown; (P)) [Example 27, N-((S)-1-((3P,3P)-3-(4-chloro-1-methyl-3-(methylsulfonamido)-1H-indazol-7-yl)-4-oxo-7-(2,2,3,3-tetrafluoropropoxy)-3,4-dihydropyrido[2,3-d]pyrimidin-2-yl)-2-(3,5-difluorophenyl)ethyl)-2-((3bS,4aR)-3-(difluoromethyl)-5,5-difluoro-3b,4,4a,5-tetrahydro-1H-cyclopropa[3,4]cyclopenta[1,2-c]pyrazol-1-yl)acetamide]	0.022	> 100
Cn1nc(NS(C)(=O)=O)c2c(Cl)ccc(-n3c([C@H](Cc4cc(F)cc(F)c4)NC(=O)Cn4nc(C(F)F)c5c4C(F)(F)[C@@H]4C[C@H]54)nc4nc(OCC5CC5(F)F)ccc4c3=O)c21 (stereo partly drawn) [Example 33, N-((1S)-1-((3P)-3-(4-chloro-1-methyl-3-(methylsulfonamido)-1H-indazol-7-yl)-7-((2,2-difluorocyclopropyl)methoxy)-4-oxo-3,4-dihydropyrido[2,3-d]pyrimidin-2-yl)-2-(3,5-difluorophenyl)ethyl)-2-((3bS,4aR)-3-(difluoromethyl)-5,5-difluoro-3b,4,4a,5-tetrahydro-1H-cyclopropa[3,4]cyclopenta[1,2-c]pyrazol-1-yl)acetamide]	0.037	> 100
COC1(CCOc2ccc3c(=O)n(-c4ccc(Cl)c5c(NS(C)(=O)=O)nn(C)c45)c([C@H](Cc4cc(F)cc(F)c4)NC(=O)Cn4nc(C(F)F)c5c4C(F)(F)[C@@H]4C[C@H]54)nc3n2)CCC1 (atropisomer, axis not shown; (P)) [Example 16, N-((S)-1-((3P,3P)-3-(4-chloro-1-methyl-3-(methylsulfonamido)-1H-indazol-7-yl)-7-(2-(1-methoxycyclobutyl)ethoxy)-4-oxo-3,4-dihydropyrido[2,3-d]pyrimidin-2-yl)-2-(3,5-difluorophenyl)ethyl)-2-((3bS,4aR)-3-(difluoromethyl)-5,5-difluoro-3b,4,4a,5-tetrahydro-1H-cyclopropa[3,4]cyclopenta[1,2-c]pyrazol-1-yl)acetamide]	0.03	> 100
Cn1nc(NS(C)(=O)=O)c2c(Cl)ccc(-n3c([C@H](Cc4cc(F)cc(F)c4)NC(=O)Cn4nc(C(F)F)c5c4C(F)(F)[C@@H]4C[C@H]54)nc4nc(OCCC(F)(F)C(F)(F)F)ccc4c3=O)c21 (atropisomer, axis not shown; (P)) [Example 19, N-((S)-1-((3P)-3-(4-chloro-1-methyl-3-(methylsulfonamido)-1H-indazol-7-yl)-4-oxo-7-(3,3,4,4,4-pentafluorobutoxy)-3,4-dihydropyrido[2,3-d]pyrimidin-2-yl)-2-(3,5-difluorophenyl)ethyl)-2-((3bS,4aR)-3-(difluoromethyl)-5,5-difluoro-3b,4,4a,5-tetrahydro-1H-cyclopropa[3,4]cyclopenta[1,2-c]pyrazol-1-yl)acetamide]	0.044	> 100
Cn1nc(NS(C)(=O)=O)c2c(Cl)ccc(-n3c([C@H](Cc4cc(F)cc(F)c4)NC(=O)Cn4nc(C(F)F)c5c4C(F)(F)[C@@H]4C[C@H]54)nc4nc(OCc5ccn(CC(F)(F)F)n5)ccc4c3=O)c21 (atropisomer, axis not shown; (P)) [Example 24, N-((S)-1-((3P)-3-(4-chloro-1-methyl-3-(methylsulfonamido)-1H-indazol-7-yl)-4-oxo-7-((1-(2,2,2-trifluoroethyl)-1H-pyrazol-3-yl)methoxy)-3,4-dihydropyrido[2,3-d]pyrimidin-2-yl)-2-(3,5-difluorophenyl)ethyl)-2-((3bS,4aR)-3-(difluoromethyl)-5,5-difluoro-3b,4,4a,5-tetrahydro-1H-cyclopropa[3,4]cyclopenta[1,2-c]pyrazol-1-yl)acetamide]	0.057	> 100
CN(CCOc1ccc2c(=O)n(-c3ccc(Cl)c4c(NS(C)(=O)=O)nn(C)c34)c([C@H](Cc3cc(F)cc(F)c3)NC(=O)Cn3nc(C(F)F)c4c3C(F)(F)[C@@H]3C[C@H]43)nc2n1)S(C)(=O)=O (atropisomer, axis not shown; (P)) [Example 10, N-((S)-1-((3P)-3-(4-chloro-1-methyl-3-(methylsulfonamido)-1H-indazol-7-yl)-7-(2-(N-methylmethylsulfonamido)ethoxy)-4-oxo-3,4-dihydropyrido[2,3-d]pyrimidin-2-yl)-2-(3,5-difluorophenyl)ethyl)-2-((3bS,4aR)-3-(difluoromethyl)-5,5-difluoro-3b,4,4a,5-tetrahydro-1H-cyclopropa[3,4]cyclopenta[1,2-c]pyrazol-1-yl)acetamide]	0.041	> 500
Cn1nc(NS(C)(=O)=O)c2c(Cl)ccc(-n3c([C@H](Cc4cc(F)cc(F)c4)NC(=O)Cn4nc(C(F)F)c5c4C(F)(F)[C@@H]4C[C@H]54)nc4nc(OCc5ccncc5)ccc4c3=O)c21 (atropisomer, axis not shown; (P)) [Example 2, N-((S)-1-((3P,3P)-3-(4-chloro-1-methyl-3-(methylsulfonamido)-1H-indazol-7-yl)-4-oxo-7-(pyridin-4-ylmethoxy)-3,4-dihydropyrido[2,3-d]pyrimidin-2-yl)-2-(3,5-difluorophenyl)ethyl)-2-((3bS,4aR)-3-(difluoromethyl)-5,5-difluoro-3b,4,4a,5-tetrahydro-1H-cyclopropa[3,4]cyclopenta[1,2-c]pyrazol-1-yl)acetamide]	0.06	> 100
Cn1nc(NS(C)(=O)=O)c2c(Cl)ccc(-n3c([C@H](Cc4cc(F)cc(F)c4)NC(=O)Cn4nc(C(F)F)c5c4C(F)(F)[C@@H]4C[C@H]54)nc4nc(OCCC(C)(C)C(F)(F)F)ccc4c3=O)c21 (atropisomer, axis not shown; (P)) [Example 4, N-((S)-1-((3P)-3-(4-chloro-1-methyl-3-(methylsulfonamido)-1H-indazol-7-yl)-4-oxo-7-(4,4,4-trifluoro-3,3-dimethylbutoxy)-3,4-dihydropyrido[2,3-d]pyrimidin-2-yl)-2-(3,5-difluorophenyl)ethyl)-2-((3bS,4aR)-3-(difluoromethyl)-5,5-difluoro-3b,4,4a,5-tetrahydro-1H-cyclopropa[3,4]cyclopenta[1,2-c]pyrazol-1-yl)acetamide]	0.078	> 200
Cn1nc(NS(C)(=O)=O)c2c(Cl)ccc(-n3c([C@H](Cc4cc(F)cc(F)c4)NC(=O)Cn4nc(C(F)F)c5c4C(F)(F)[C@@H]4C[C@H]54)nc4nc(OCc5nc(C(F)(F)F)cs5)ccc4c3=O)c21 (atropisomer, axis not shown; (P)) [Example 23, N-((S)-1-((3P)-3-(4-chloro-1-methyl-3-(methylsulfonamido)-1H-indazol-7-yl)-4-oxo-7-((4-(trifluoromethyl)thiazol-2-yl)methoxy)-3,4-dihydropyrido[2,3-d]pyrimidin-2-yl)-2-(3,5-difluorophenyl)ethyl)-2-((3bS,4aR)-3-(difluoromethyl)-5,5-difluoro-3b,4,4a,5-tetrahydro-1H-cyclopropa[3,4]cyclopenta[1,2-c]pyrazol-1-yl)acetamide]	0.1	> 100
